Assay results reported in patent US6372787B1 (dated 2002).

melting point: 118 to 119 °C
Structure (SMILES): CON=C(C(C)=NN=Cc1ccccc1C(=NOC)C(=O)OC)c1ccc(Cl)cc1
